Where a name gives a salt, the structure may show the parent alone. Read-outs that look alike come from different tables or passages of the source.
How the values were obtained:
Type in all cases: biochemical
recombinant PRL-3 = target: T1, recombinant PRL-3 (Homo sapiens, UniProt O75365); assay: In vitro phosphatase assay (DiFMUP hydrolysis), PRL-3; note: test concentration or dose not given here
T1 construct: 6xHis (N, cleaved yes); made in house; host or cells: E. coli One Shot BL21 Star

recombinant PRL-1 = target: T2, recombinant PRL-1 (Homo sapiens, UniProt Q93096); assay: In vitro phosphatase assay (DiFMUP hydrolysis), PRL-1; note: test concentration or dose not given here
T2 construct: 6xHis (N, cleaved yes); made in house; host or cells: E. coli One Shot BL21 Star
T2 sequence (Q93096 1-173): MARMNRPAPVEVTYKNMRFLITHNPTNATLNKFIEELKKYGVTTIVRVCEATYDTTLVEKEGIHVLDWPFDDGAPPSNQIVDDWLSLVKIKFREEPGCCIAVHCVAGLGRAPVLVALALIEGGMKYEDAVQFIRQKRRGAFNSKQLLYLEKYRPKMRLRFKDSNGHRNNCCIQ

recombinant PRL-2 = target: T3, recombinant PRL-2 (Homo sapiens, UniProt Q12974); assay: In vitro phosphatase assay (DiFMUP hydrolysis), PRL-2;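 note: PRL-2 activity read as DiFMUP hydrolysis after 20 min at room temperature with drug, enzyme first pre-reduced at 4 °C for 20 min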
T3 construct: 6xHis (N, cleaved yes); made in house; host or cells: E. coli One Shot BL21 Star
T3 sequence (Q12974 1-167): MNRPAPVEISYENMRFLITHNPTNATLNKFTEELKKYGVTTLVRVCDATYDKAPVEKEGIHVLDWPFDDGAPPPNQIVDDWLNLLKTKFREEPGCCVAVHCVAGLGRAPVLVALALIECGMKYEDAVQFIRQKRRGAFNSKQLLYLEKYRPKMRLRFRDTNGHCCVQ

[1] = FDA-approved drug screen, compared to DMSO
[2] = FDA-approved drug screen, activity compared to DMSO

T1 sequence (O75365 whole entry): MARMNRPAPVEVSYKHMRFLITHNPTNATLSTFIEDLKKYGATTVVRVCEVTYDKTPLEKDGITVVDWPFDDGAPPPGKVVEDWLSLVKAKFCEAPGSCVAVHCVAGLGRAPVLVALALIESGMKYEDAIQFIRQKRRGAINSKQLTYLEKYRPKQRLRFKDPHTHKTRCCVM

Compound	% Phosphatase Activity (compared to DMSO) PRL-3 (recombinant PRL-3; [1])	% Phosphatase Activity (compared to DMSO) PRL-1 (recombinant PRL-1; [1])	% Phosphatase Activity (compared to DMSO) PRL-2 (recombinant PRL-2; [1])	further results
Cc1ccc(C(=O)C(C)CN2CCCCC2)cc1.Cl (stereo not drawn) [Tolperisone HCl]	–	–	–	% Phosphatase Activity (compared to DMSO) PRL-3 (recombinant PRL-3; [2]): 71%; % Phosphatase Activity (compared to DMSO) PRL-1 (recombinant PRL-1; [2]): 91%; % Phosphatase Activity (compared to DMSO) PRL-2 (recombinant PRL-2; [2]): 108%
CC(C)(C)NC(=O)[C@H]1CC[C@H]2[C@@H]3CC[C@H]4NC(=O)C=C[C@]4(C)[C@H]3CC[C@]12C [Finasteride]	81%	93%	87%	–
CC(C(=O)O)c1ccc2c(c1)Cc1cccnc1O2 (stereo not drawn) [Pranoprofen]	92%	97%	87%	–
COc1cc2c(Oc3ccc4[nH]c(C)cc4c3F)ncnc2cc1OCCCN1CCCC1 [Cediranib (AZD2171)]	90%	100%	105%	–
CCOC(=O)N[C@@H]1CC[C@@H]2[C@@H](C1)C[C@H]1C(=O)O[C@H](C)[C@H]1[C@H]2/C=C/c1ccc(-c2cccc(F)c2)cn1 [Vorapaxar]	–	–	–	% Phosphatase Activity (compared to DMSO) PRL-3 (recombinant PRL-3; [2]): 86%; % Phosphatase Activity (compared to DMSO) PRL-1 (recombinant PRL-1; [2]): 95%; % Phosphatase Activity (compared to DMSO) PRL-2 (recombinant PRL-2; [2]): 73%
CN(C)CCOC(c1ccc(Cl)cc1)c1ccccn1.O=C(O)/C=C\C(=O)O (stereo not drawn) [ArbinoxaMine Maleate]	91%	100%	77%	–
C[N+]1(C)[C@@H]2C[C@@H](OC(=O)[C@H](CO)c3ccccc3)C[C@H]1[C@@H]1O[C@@H]12 [Methscopolamine]	88%	86%	107%	–
CSc1ccc2c(c1)N(CCC1CCCCN1C)c1ccccc1S2 (stereo not drawn) [Thioridazine HCl]	–	–	–	% Phosphatase Activity (compared to DMSO) PRL-3 (recombinant PRL-3): 97%; % Phosphatase Activity (compared to DMSO) PRL-1 (recombinant PRL-1): 95%; % Phosphatase Activity (compared to DMSO) PRL-2 (recombinant PRL-2): 104%
COCC[n+]1c2c(n(Cc3cnccn3)c1C)C(=O)c1ccccc1C2=O.[Br-] [YM155 (Sepantronium Bromide)]	–	–	–	% Phosphatase Activity (compared to DMSO) PRL-3 (recombinant PRL-3; [2]): 5%; % Phosphatase Activity (compared to DMSO) PRL-1 (recombinant PRL-1; [2]): 11%; % Phosphatase Activity (compared to DMSO) PRL-2 (recombinant PRL-2; [2]): 13%
COc1cc2nc(N3CCN(C(=O)c4ccco4)CC3)nc(N)c2cc1OC [Prazosin HCl]	263%	460%	435%	–
Cn1c(=O)cc(N2CCC[C@@H](N)C2)n(Cc2cc(F)ccc2C#N)c1=O [Trelagliptin]	–	–	–	% Phosphatase Activity (compared to DMSO) PRL-3 (recombinant PRL-3; [2]): 107%; % Phosphatase Activity (compared to DMSO) PRL-1 (recombinant PRL-1; [2]): 106%; % Phosphatase Activity (compared to DMSO) PRL-2 (recombinant PRL-2; [2]): 76%
CC(=O)OCC(=O)[C@@]1(O)CC[C@H]2[C@@H]3CCC4=CC(=O)CC[C@]4(C)[C@H]3C(=O)C[C@@]21C [Cortisone acetate]	78%	98%	94%	–
CN1CCC(=C2c3ccccc3C=Cc3ccccc32)CC1 [Cyproheptadine hydrochloride]	84%	93%	102%	–
O=[N+]([O-])O[C@@H]1CO[C@H]2[C@@H]1OC[C@@H]2O [Isosorbide Mononitrate]	81%	91%	85%	–
CC(C)OC(=O)C(C)(C)Oc1ccc(C(=O)c2ccc(Cl)cc2)cc1 [Fenofibrate]	101%	88%	89%	–
CCCS(=O)(=O)Nc1ccc(F)c(C(=O)c2c[nH]c3ncc(-c4ccc(Cl)cc4)cc23)c1F [Vemurafenib (PLX4032, RG7204)]	–	–	–	% Phosphatase Activity (compared to DMSO) PRL-3 (recombinant PRL-3; [2]): 80%; % Phosphatase Activity (compared to DMSO) PRL-1 (recombinant PRL-1; [2]): 89%; % Phosphatase Activity (compared to DMSO) PRL-2 (recombinant PRL-2; [2]): 89%
Cl.Cl.NCCc1c[nH]cn1 [Histamine 2HCl]	–	–	–	% Phosphatase Activity (compared to DMSO) PRL-3 (recombinant PRL-3): 71%; % Phosphatase Activity (compared to DMSO) PRL-1 (recombinant PRL-1): 97%; % Phosphatase Activity (compared to DMSO) PRL-2 (recombinant PRL-2): 118%
CC(=O)CCCCn1c(=O)c2c(ncn2C)n(C)c1=O [Pentoxifylline]	92%	85%	92%	–
CCc1cc(C(N)=S)ccn1 [Ethionamide]	–	–	–	% Phosphatase Activity (compared to DMSO) PRL-3 (recombinant PRL-3): 91%; % Phosphatase Activity (compared to DMSO) PRL-1 (recombinant PRL-1): 91%; % Phosphatase Activity (compared to DMSO) PRL-2 (recombinant PRL-2): 101%
CC1(C)S[C@@H]2[C@H](NC(=O)[C@H](N)c3ccccc3)C(=O)N2[C@H]1C(=O)O [Ampicillin Trihydrate]	72%	92%	106%	–

More lines, main results first:

% Phosphatase Activity (compared to DMSO) PRL-3 (recombinant PRL-3; [1])	% Phosphatase Activity (compared to DMSO) PRL-1 (recombinant PRL-1; [1])	% Phosphatase Activity (compared to DMSO) PRL-2 (recombinant PRL-2; [1])	Compound	further results
88%	95%	91%	CC(C)(Oc1ccc(C2CC2(Cl)Cl)cc1)C(=O)O (stereo not drawn) [Ciprofibrate]	–
86%	102%	105%	CC(C)C[C@H](NC(=O)CNC(=O)c1cc(Cl)ccc1Cl)B(O)O [MLN2238]	–
99%	92%	91%	CC(=O)O[C@]1(C(C)=O)CC[C@H]2[C@@H]3C=C(Cl)C4=CC(=O)[C@@H]5C[C@@H]5[C@]4(C)[C@H]3CC[C@@]21C [Cyproterone Acetate]	–
122%	92%	94%	CCCCCCCCCCCCCCCCOP(=O)([O-])OCC[N+](C)(C)C [Miltefosine]	–
86%	105%	113%	O=C1C2CC3CC1CC(O)(C3)C2 [Idramantone]	–
79%	102%	91%	Cc1c(O)cccc1C(=O)N[C@@H](CSc1ccccc1)[C@H](O)CN1C[C@H]2CCCC[C@H]2C[C@H]1C(=O)NC(C)(C)C [Nelfinavir Mesylate]	–
117%	98%	105%	CC1Cc2ccccc2N1NC(=O)c1ccc(Cl)c(S(N)(=O)=O)c1 (stereo not drawn) [Indapamide]	–
74%	82%	91%	CCCCOc1ccc(OCCCN2CCOCC2)cc1 [Pramoxine HCl]	–
71%	91%	83%	CN(C)CCOC(C)(c1ccccc1)c1ccccn1 (stereo not drawn) [Doxylamine Succinate]	–
91%	88%	101%	O=C(c1cc(Cc2n[nH]c(=O)c3ccccc23)ccc1F)N1CCN(C(=O)C2CC2)CC1 [Olaparib (AZD2281, Ku-0059436)]	–
80%	79%	112%	N#CC(c1ccc(Cl)cc1)c1c(Cl)cc(-n2ncc(=O)[nH]c2=O)cc1Cl (stereo not drawn) [Diclazuril]	–
79%	98%	107%	CN1CC2c3ccccc3Oc3ccc(Cl)cc3C2C1 (stereo not drawn) [Asenapine]	–
59%	74%	68%	Carbazochrome sodium sulfonate (AC-17)	–
81%	112%	102%	Cc1ncc([N+](=O)[O-])n1CC(C)O (stereo not drawn) [Secnidazole]	–
79%	90%	107%	COc1ccc(C(=O)c2ccccc2O)c(O)c1 [2,2′-Dihydroxy-4-methoxybenzophenone]	–
121%	138%	114%	Cc1c(-c2ccnn2C)cc(C(=O)NCc2ccc(S(C)(=O)=O)cn2)c(=O)n1-c1cccc(C(F)(F)F)c1 [Alvelestat (AZD9668)]	–
82%	99%	91%	C[C@]12CC[C@@H]3c4ccc(O)cc4C[C@@H](CCCCCCCCC[S+]([O-])CCCC(F)(F)C(F)(F)F)[C@H]3[C@@H]1CC[C@@H]2O (stereo partly drawn) [Fulvestrant]	–
80%	105%	88%	COc1cc(C(C)=O)ccc1OCCCN1CCC(c2noc3cc(F)ccc23)CC1 [Iloperidone]	–
96%	106%	122%	CC(C)(C#N)c1cc(Cn2cncn2)cc(C(C)(C)C#N)c1 [Anastrozole]	–
87%	107%	101%	O=C(Nc1c(Cl)cncc1Cl)c1ccc(OC(F)F)c(OCC2CC2)c1 [Roflumilast]	–
